Measurements taken from patent US20210317140A1, “Heterocyclic Compounds and Methods of Use” (MEDIVATION TECHNOLOGIES, INC, priority 2013, published 2021).

Tests used:
BTK = target: T1, BTK (Homo sapiens, UniProt Q06187); test: BTK kinase assay (HotSpot, 33P ATP); format: biochemical; conditions: for BTK @ 0.01 μM (% Inh): 0.01 μM compound; for BTK @ 0.01 μM (% Inh) / BTK @ 0.1 μM (% Inh) / BTK @ 1 μM (% Inh): 10 μM ATP; for BTK @ 0.1 μM (% Inh): 0.1 μM compound; for IC50: 10 dose IC50, 10 μM ATP; for BTK @ 1 μM (% Inh): 1 μM compound
T1 construct: purchased Reaction Biology Corporation
T1 sequence (Q06187 whole entry): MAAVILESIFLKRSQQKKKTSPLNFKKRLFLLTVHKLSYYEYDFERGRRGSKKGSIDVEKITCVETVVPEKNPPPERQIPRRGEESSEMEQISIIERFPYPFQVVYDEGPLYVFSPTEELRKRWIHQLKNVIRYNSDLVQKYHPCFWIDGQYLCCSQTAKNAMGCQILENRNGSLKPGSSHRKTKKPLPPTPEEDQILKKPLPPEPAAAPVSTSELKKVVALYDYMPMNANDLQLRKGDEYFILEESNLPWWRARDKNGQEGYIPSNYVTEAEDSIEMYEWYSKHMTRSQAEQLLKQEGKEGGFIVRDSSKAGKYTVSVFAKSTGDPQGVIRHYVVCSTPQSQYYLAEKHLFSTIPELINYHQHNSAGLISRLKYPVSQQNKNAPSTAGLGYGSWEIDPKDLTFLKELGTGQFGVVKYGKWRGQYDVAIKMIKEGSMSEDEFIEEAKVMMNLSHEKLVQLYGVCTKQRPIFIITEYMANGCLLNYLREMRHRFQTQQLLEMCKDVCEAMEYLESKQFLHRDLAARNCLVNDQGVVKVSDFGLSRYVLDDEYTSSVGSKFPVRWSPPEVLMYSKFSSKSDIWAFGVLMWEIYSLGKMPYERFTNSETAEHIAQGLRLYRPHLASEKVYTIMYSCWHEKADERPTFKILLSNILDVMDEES
Summary of the method: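 In 20 mM Hepes (pH 7.5) with 10 mM MgCl2, 1 mM EGTA, 0.1 mM Na3VO4, 2 mM DTT, 0.02% Brij35, 0.02 mg/mL BSA and 1% DMSO, kinase and substrate were exposed to ten compound doses for 15–20 min.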

PI3Kδ = target: T2, PI3Kδ (Homo sapiens, UniProt O00329); test: PI3Kδ kinase assay (HTRF, PIP3 detection); format: biochemical; conditions: for PI3Kδ @ 0.01 μM (% Inh): 0.01 μM compound; for PI3Kδ @ 0.01 μM (% Inh) / PI3Kδ @ 0.1 μM (% Inh) / PI3Kδ @ 1 μM (% Inh): 10 μM ATP; for PI3Kδ @ 0.1 μM (% Inh): 0.1 μM compound; for IC50: 10 dose IC50, 10 μM ATP; for PI3Kδ @ 1 μM (% Inh): 1 μM compound
T2 construct: purchased Reaction Biology Corporation
T2 sequence (O00329 whole entry): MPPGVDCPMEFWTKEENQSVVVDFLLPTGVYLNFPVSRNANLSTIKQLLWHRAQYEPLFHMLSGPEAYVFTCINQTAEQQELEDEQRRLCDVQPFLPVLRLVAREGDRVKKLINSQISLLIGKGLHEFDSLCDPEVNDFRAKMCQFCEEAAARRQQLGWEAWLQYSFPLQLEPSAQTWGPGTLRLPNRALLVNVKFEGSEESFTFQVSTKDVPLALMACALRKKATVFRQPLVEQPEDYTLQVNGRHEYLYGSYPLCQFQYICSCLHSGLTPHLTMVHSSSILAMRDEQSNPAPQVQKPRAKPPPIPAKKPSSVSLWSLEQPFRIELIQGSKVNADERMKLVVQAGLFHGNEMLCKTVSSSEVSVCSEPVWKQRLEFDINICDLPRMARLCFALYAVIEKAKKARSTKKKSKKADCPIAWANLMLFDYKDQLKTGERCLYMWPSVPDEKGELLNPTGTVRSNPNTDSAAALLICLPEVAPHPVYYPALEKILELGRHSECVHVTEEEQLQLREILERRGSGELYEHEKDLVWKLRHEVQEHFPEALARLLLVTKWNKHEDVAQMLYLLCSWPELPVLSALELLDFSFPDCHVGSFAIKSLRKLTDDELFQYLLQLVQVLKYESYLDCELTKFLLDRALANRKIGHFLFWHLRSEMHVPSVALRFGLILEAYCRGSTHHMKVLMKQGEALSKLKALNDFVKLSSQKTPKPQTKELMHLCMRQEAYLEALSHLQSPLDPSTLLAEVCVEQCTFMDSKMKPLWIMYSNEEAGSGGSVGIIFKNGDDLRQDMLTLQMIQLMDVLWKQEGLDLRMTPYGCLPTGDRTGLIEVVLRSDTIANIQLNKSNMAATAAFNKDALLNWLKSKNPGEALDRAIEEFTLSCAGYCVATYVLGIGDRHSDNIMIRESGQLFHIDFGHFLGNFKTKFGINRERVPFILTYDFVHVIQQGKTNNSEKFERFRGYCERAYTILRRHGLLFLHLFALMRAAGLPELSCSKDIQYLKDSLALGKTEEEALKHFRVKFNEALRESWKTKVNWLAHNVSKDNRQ
T2 sequence (P27986 whole entry partner): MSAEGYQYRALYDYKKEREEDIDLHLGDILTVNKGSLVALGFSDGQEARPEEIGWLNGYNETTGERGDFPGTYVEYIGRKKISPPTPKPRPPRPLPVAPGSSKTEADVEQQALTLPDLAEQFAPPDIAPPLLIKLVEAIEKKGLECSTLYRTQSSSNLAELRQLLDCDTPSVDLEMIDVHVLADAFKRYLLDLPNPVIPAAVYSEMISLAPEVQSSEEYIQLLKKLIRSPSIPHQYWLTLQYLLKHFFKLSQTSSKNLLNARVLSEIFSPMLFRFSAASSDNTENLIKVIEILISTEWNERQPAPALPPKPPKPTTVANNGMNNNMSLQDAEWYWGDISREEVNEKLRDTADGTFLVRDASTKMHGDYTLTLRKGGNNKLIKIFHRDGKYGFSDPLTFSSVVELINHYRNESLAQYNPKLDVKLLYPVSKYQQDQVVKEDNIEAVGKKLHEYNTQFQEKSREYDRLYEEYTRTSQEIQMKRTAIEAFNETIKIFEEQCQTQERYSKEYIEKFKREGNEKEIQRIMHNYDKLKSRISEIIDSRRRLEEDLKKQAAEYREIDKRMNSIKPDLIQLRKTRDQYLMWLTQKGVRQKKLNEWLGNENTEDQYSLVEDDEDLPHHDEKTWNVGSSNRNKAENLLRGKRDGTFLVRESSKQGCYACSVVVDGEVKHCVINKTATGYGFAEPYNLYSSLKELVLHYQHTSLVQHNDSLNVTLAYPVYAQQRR
Summary of the method: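 10-dose HTRF assay; kinase preincubated with compound 10 min at RT, then reacted with 10 μM PIP2 and 10 μM ATP for 30 min at 30 °C in HEPES pH 7.0 buffer. PIP3 product displaces biotin-PIP3 from the Eu/APC complex; signal converted to PIP3 via standard curve, IC50 by nonlinear regression.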

CD69+B220+ cells = test: B cell activation assay (IgD-stimulated splenocytes, CD69+B220+ cells by FACS); format: cell-based; conditions: mouse splenocytes, IgD 3 μg/mL, 4 h; for CD69 @ 100 nM (% Inh): 100 nM compound
Protocol: 1 Female mouse approximately 2 months old was euthanized with CO2 and the spleen removed. The tissue was homogenized with a polished glass microscope slide. The cells were collected in 5 mL complete medium (RPMI+10% FBS+pen/strep), placed in a 15 mL falcon tube and centrifuged at 500×g for 5 min. The supernatant was discarded and the pellet was resuspended in 3 mL of ACK lysis buffer (NH4Cl 0.17M, KHCO3 10 mM, EDTA-Na2 0.1 mM, pH 7.2), incubated at 37° C. for 5 min. 2 mL complete medium was added and the mixture centrifuged at 500×g for 5 min. The supernatant was discarded and the pellet resuspended in 1 mL complete medium. The mixture was passed through a […] cell strainer and collect in 50 mL falcon tube. Enough medium was added to have a total of 10 mL. The cells were counted and seeded in 24 or 48-well plate in 1 mL complete medium at 10^6 cells/mL. The plate was placed in a 37° C. incubator for 15 min. The cells were treated for 30 min at 37° C. with 100 nM test compound dissolved in 100% DMSO. 3 μL IgD (Accurate chemical and scientific corp.) was added at a final concentration of 3 μg/mL and the mixture incubated at 37° C. for 4 h. The cells were collected in 1.5 mL eppendorf tubes, centrifuged at 500×g for 5 min and then resuspended in 100 μL of PBS+2% FBS. The following antibodies were added: α-B220 PE (pharmingen #553090), α-CD69 APC (pharmingen #60689), live/dead fixable aqua dead cell stain kit (life technologies #L34957) all at 1:300, and the mixture incubated for 15 min at 4° C. in the dark. To this was added 900 μL of PBS+2% FBS and the mixture centrifuged at 500×g for 5 min. The supernatant was removed and the pellet resuspended in 300 μL of PBS+2% FBS and mixed well. The mixture was transferred to a cytometer tube. The samples were run in the FACS Canto II cytometer and quantified by the number of CD69+B220+ cells as a percentage of the total number of B220+ alive cells.

| Compound | BTK @ 0.01 μM (% Inh) (BTK) | BTK @ 0.1 μM (% Inh) (BTK) | PI3Kδ @ 0.01 μM (% Inh) (PI3Kδ) | PI3Kδ @ 0.1 μM (% Inh) (PI3Kδ) | CD69 @ 100 nM (% Inh) (CD69+B220+ cells) | IC50 (BTK) [nM] | IC50 (PI3Kδ) [nM] | CD69 @ 100 nM (% Inh) (CD69+B220+ cells; 0.1 µM) | BTK @ 1 μM (% Inh) (BTK) | PI3Kδ @ 1 μM (% Inh) (PI3Kδ) | IC50 (CD69+B220+ cells; Splenocyte) [nM] |
| --- | --- | --- | --- | --- | --- | --- | --- | --- | --- | --- | --- |
| Nc1ncnc2c1c(-c1ccc3[nH]c(O)nc3c1)nn2C1Cc2ccccc2C1 [compound 108, 5-[4-amino-1-(2,3-dihydro-1H-inden-2-yl)-1H-pyrazolo[3,4-d]pyrimidin-3-yl]-1H-1,3-benzodiazol-2-ol] | 1.76 | 6.6 | 9.28 | 21.98 | 11.99 ± 7.58 (n = 3) % Inh | – | – | – | – | – | – |
| Nc1ncnc2c1c(-c1cc(O)c(F)c(F)c1)cn2C1CCc2ccccc2C1 (stereo not drawn) [compound 114, 5-[4-amino-7-(1,2,3,4-tetrahydronaphthalen-2-yl)-7H-pyrrolo[2,3-d]pyrimidin-5-yl]-2,3-difluorophenol] | 41.16 | 86.29 | 41.19 | 84.46 | 10.19 ± 13.54 (n = 3) % Inh | 20.2 | 23.2 | – | – | – | – |
| Nc1ncnc2c1c(-c1cc(F)c3c(c1)NCCO3)nn2C1CCc2ccccc2C1 (stereo not drawn) [compound 124, 3-(8-fluoro-3,4-dihydro-2H-1,4-benzoxazin-6-yl)-1-(1,2,3,4-tetrahydronaphthalen-2-yl)-1H-pyrazolo[3,4-d]pyrimidin-4-amine] | 4.47 | 34.18 | 8.34 | 52.39 | 14.44 ± 2.64 (n = 3) % Inh | – | – | – | – | – | – |
| C=CC(=O)N1CC(n2nc(-c3cc(O)cc(F)c3)c3c(N)ncnc32)Cc2cc(C)ccc21 (single isomer, unassigned) [31a, 1-(3-(4-amino-3-(3-fluoro-5-hydroxyphenyl)-1H-pyrazolo[3,4-d]pyrimidin-1-yl)-6-methyl-3,4-dihydroquinolin-1(2H)-yl)prop-2-en-1-one] | 67.39 | 93.84 | 33.04 | 68.13 | – | 9.5 | 27.7 | 15.47 ± 13.75 (n = 8) % Inh | – | – | – |
| COc1cc(-c2nn(C3Cc4ccccc4C3)c3ncnc(N)c23)cc(C#N)c1OC [Compound No. 105, 5-[4-amino-1-(2,3-dihydro-1H-inden-2-yl)-1H-pyrazolo[3,4-d]pyrimidin-3-yl]-2,3-dimethoxybenzonitrile] | – | 27.50 | – | 16.0 | 24.25 ± 33.84 (n = 5) % Inh | – | – | – | 59.18 | 34.72 | – |
| Nc1cc(-c2nn(C3CCc4ccccc4C3)c3ncnc(N)c23)cc(F)c1F (stereo not drawn) [compound 122, 3-(3-amino-4,5-difluorophenyl)-1-(1,2,3,4-tetrahydronaphthalen-2-yl)-1H-pyrazolo[3,4-d]pyrimidin-4-amine] | 12.72 | 53.15 | −3.68 | 25.32 | 2.58 ± 4.93 (n = 3) % Inh | – | – | – | – | – | – |
| N#Cc1cc(-c2nn(C3CCc4ccccc4C3)c3ncnc(N)c23)cc(O)c1F (stereo not drawn) [compound 130, 5-[4-amino-1-(1,2,3,4-tetrahydronaphthalen-2-yl)-1H-pyrazolo[3,4-d]pyrimidin-3-yl]-2-fluoro-3-hydroxybenzonitrile] | −1.03 | −0.64 | 53.08 | 90.11 | 67.53 ± 15.54 (n = 3) % Inh | – | 0.269 | – | – | – | 104.5 ± 0.7 |
| Nc1ncnn2c(C3Cc4ccccc4C3)cc(-c3cc(O)c(F)c(F)c3)c12 [compound 125, 5-[4-amino-7-(2,3-dihydro-1H-inden-2-yl)pyrrolo[2,1-f][1,2,4]triazin-5-yl]-2,3-difluorophenol] | 39.05 | 80.31 | 22.51 | 62.27 | 2.68 ± 2.32 (n = 3) % Inh | 14.2 | 32.8 | – | – | – | – |
| Nc1ncnc2c1c(-c1ccc(Br)c(O)c1)nn2C1CCc2ccccc21 (single isomer, unassigned) [36a, 5-[4-amino-1-(2,3-dihydro-1H-inden-1-yl)-1H-pyrazolo[3,4-d]pyrimidin-3-yl]-2-bromophenol] | – | 26.99 | – | 34.17 | 1.63 ± 7.31 (n = 3) % Inh | 190 | 1 | – | 72.83 | 76.31 | – |
| NCc1cccc(-c2nn(C3Cc4ccccc4C3)c3ncnc(N)c23)c1 [compound 133, 3-[3-(aminomethyl)phenyl]-1-(2,3-dihydro-1H-inden-2-yl)-1H-pyrazolo[3,4-d]pyrimidin-4-amine] | −0.81 | −0.94 | −1.05 | 1.17 | 6.8 ± 14.52 (n = 3) % Inh | – | – | – | – | – | – |
| Nc1cc(-c2nn(C3Cc4ccccc4C3)c3ncnc(N)c23)cc(F)c1F [compound 109, 3-(3-amino-4,5-difluorophenyl)-1-(2,3-dihydro-1H-inden-2-yl)-1H-pyrazolo[3,4-d]pyrimidin-4-amine] | 14.85 | 63.35 | 2.46 | 26.17 | 10.19 ± 14.12 (n = 3) % Inh | – | – | – | – | – | – |
| COc1ccc(-c2nn(C3CCc4ccccc4C3)c3ncnc(N)c23)cn1 (racemic) [compound 15, 3-(6-methoxypyridin-3-yl)-1-(1,2,3,4-tetrahydronaphthalen-2-yl)-1H-pyrazolo[3,4-d]pyrimidin-4-amine] | – | – | – | – | −0.75 ± 6.93 (n = 3) % Inh | 565 | 67 | – | – | – | – |
| Nc1ncnc2c1c(-c1cc(F)c3c(c1)NCCO3)nn2C1Cc2ccc(F)cc2C1 (stereo not drawn) [compound 121, 1-(5-fluoro-2,3-dihydro-1H-inden-2-yl)-3-(8-fluoro-3,4-dihydro-2H-1,4-benzoxazin-6-yl)-1H-pyrazolo[3,4-d]pyrimidin-4-amine] | 90.34 | 6.55 | 1.09 | 25.95 | −82.03 ± 14.71 (n = 3) % Inh | – | – | – | – | – | – |
| CNc1cc(-c2cn(C3Cc4ccccc4C3)c3ncnc(N)c23)cc(F)c1F [compound 113, 5-[3,4-difluoro-5-(methylamino)phenyl]-7-(2,3-dihydro-1H-inden-2-yl)-7H-pyrrolo[2,3-d]pyrimidin-4-amine] | 8.12 | 38.11 | 20.77 | 39.52 | 11.61 ± 11.81 (n = 3) % Inh | – | – | – | – | – | – |
